Results: publication PMC12251544 (2025)

System: FAM-SpA1-1/SpA1-2 (T-2 toxin split aptamer) (DNA, aptamer) CAGCTCAGAAGCTTGATCCTG/TATATCAAGCATAGAGGTG
Conditions: 5 mM K+, 100 mM Na+, 1 mM Mg2+; 50 mM Tris-HCl, 1% methanol, pH 7.4, room temperature; sensor selectivity; concentration tested not stated

Compound | binding
CCCC[C@@H](C)[C@@H](OC(=O)C[C@@H](CC(=O)O)C(=O)O)[C@H](C[C@@H](C)C[C@H](O)CCCC[C@@H](O)C[C@H](O)[C@H](C)N)OC(=O)C[C@@H](CC(=O)O)C(=O)O | no
C[C@@H]1Cc2c(Cl)cc(C(=O)N[C@@H](Cc3ccccc3)C(=O)O)c(O)c2C(=O)O1 | no
C[C@H]1CCCC(=O)CCC/C=C/c2cc(O)cc(O)c2C(=O)O1 | no
